Assay results from patent US20230338348A1, “RENIN-ANGIOTENSIN SYSTEM (RAS) MODULATORS FOR TREATMENT OF VIRAL INFECTIONS, PHARMACEUTICAL COMPOSITIONS INCLUDING THE SAME, AND METHODS OF TREATING USING THE SAME” (Trocar Pharma Inc., priority 2020, published 2023).

Legend:
Human AT1 = target: T1, Human AT1 (Homo sapiens, UniProt P30556); experiment: Angiotensin II AT1 receptor inhibition; format: binding; settings: Human AT1, at 1.0 × 10^−8M drug, N = 2
T1 sequence (P30556 1-359): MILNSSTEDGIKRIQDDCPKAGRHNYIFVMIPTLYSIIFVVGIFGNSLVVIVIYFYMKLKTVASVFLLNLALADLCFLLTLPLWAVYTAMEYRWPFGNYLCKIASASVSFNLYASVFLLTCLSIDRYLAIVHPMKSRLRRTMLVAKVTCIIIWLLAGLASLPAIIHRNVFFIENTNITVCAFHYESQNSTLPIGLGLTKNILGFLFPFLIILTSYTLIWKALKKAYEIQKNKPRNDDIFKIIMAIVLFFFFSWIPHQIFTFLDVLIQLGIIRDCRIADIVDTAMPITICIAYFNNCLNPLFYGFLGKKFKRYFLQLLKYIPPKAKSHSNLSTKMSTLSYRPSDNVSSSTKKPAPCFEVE

AT2, angiotensin II = target: T2, AT2, angiotensin II (Homo sapiens, UniProt P50052); experiment: Angiotensin II AT2 receptor inhibition; format: binding; settings: at 1.0 × 10^−9M drug, N = 2
T2 sequence (P50052 1-363): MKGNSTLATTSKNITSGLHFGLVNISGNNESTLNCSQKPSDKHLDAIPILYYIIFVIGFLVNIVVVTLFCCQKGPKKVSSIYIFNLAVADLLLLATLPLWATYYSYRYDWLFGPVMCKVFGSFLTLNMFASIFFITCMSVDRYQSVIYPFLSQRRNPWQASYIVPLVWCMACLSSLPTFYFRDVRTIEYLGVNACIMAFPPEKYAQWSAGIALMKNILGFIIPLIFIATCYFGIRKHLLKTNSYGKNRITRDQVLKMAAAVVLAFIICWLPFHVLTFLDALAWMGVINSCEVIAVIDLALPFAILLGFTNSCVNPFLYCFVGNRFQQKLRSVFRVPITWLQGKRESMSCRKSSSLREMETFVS

[1] = tested on: Preglomerular vascular smooth muscle cells; experiment: O2- generation in Ang II-stimulated preglomerular vascular smooth muscle cells; format: cell-based; settings: cells stimulated by 10^−6 M Ang II
Source text: Preglomerular vascular smooth muscle cells were stimulated by 10^−6 M Ang II to produce O2^−.

[2] = in vivo; cited from earlier work

CCCc1nc2c(C)cc(-c3nc4ccccc4n3C)cc2n1Cc1ccc(-c2ccccc2C(=O)O)cc1 [Telmisartan]
inhibition at 0.01 µM (Human AT1): 52.7%
inhibition at 0.001 µM (AT2, angiotensin II): 6.37%
inhibition of O2− generation (antioxidant action) [1]: do not have antioxidant actions
half-life [2]: 24 h
